Reference: US20230255970A1, “COMPOSITIONS AND METHODS FOR TREATING PROLIFERATIVE DISEASES” (The Broad Institute, Inc., priority 2020, published 2023)
One block for each compound: values may come before it.

Tests used:
[1] = biological target: T1, p38a (MAPK14) (Homo sapiens, UniProt Q16539); assay: Single-cell p38a activity reporter assay (RPE1-p38 KTR); type: cell-based; details: 1 μM, confirmed at 10 μM; 48 hours; RPE1 cells
T1 construct: tested for their influence on p38a activity using the RPE1-p38 kinase translocation reporter (KTR) line; endogenous in cells; host or cells: RPE1-p38KTR cells
Protocol: Cell Painting profiles for two wild-type variants of p38a (MAPK14) were averaged to create a p38a Cell Painting profile. 20 compounds whose Cell Painting profile correlated positively or negatively to that of p38a overexpression were selected in addition to 14 “non-correlated compounds” defined as having an absolute value of correlation of less than 0.2 as negative/neutral controls. The compounds were tested for their influence on p38a activity using the RPE1-p38 kinase translocation reporter (KTR) line that was previously generated. This cell line has been tested and confirmed to be negative for mycoplasma contamination, but not necessarily authenticated. P38 activity is measured by phosphorylation of its substrate, MEF2C, which is preferentially phosphorylated by p38 α, while p380 and p386 contribute less. RPE1-p38KTR cells were cultured in DMEM/F12 medium supplemented with 10% Fetal Bovine Serum at 37C in a humidified atmosphere with 5% CO2. 1000 cells were plated in 96-well plates and treated with 1p M or 10 μM of each compound (n=4 per concentration per compound, no replicates) for 48 hours. Only the middle 60 wells were used to prevent potential confounds from the edge effect. Cells were then fixed in 4% paraformaldehyde for 10 min, followed by permeabilization in cold methanol at −20C for 5 min. Cells were stained with 0.4 μg/mL Alexa Fluor 647 carboxylic acid, succinimidyl ester for 2 hr at RT, followed by 1 μg/mL DAPI for 10 min at RT to facilitate the segmentation of individual cells. p38a activity in single cells was calculated using the ratio of the median intensity of the p38-KTR in a 5-pixel-wide cytoplasmic ring around the nucleus to the median intensity of the p38-KTR in the nucleus. p38a activity measurements were normalized to DMSO conditions within the same plate. The Student's t-test Kolomogorov-Smirnov (KS) test was used to assess the score and significance of the single cell distributions of p38a activity for each compound relative to control. […] When reporting hits from this assay, KS test and t-test p-values were adjusted to control the false discovery rate using the Benjamini-Hochberg method, using the p.adjust method=‘BH” in R.

[2] = tested on: rat cortical neurons; assay: TMRE staining (mitochondrial membrane potential) in rat cortical neurons; type: cell-based; details: 10 μM
Protocol: High content mitochondrial motility screen: Mitochondrial motility was measured as described in Shlevkov, E. et al., Cell Rep. […] Briefly, we plated E18 rat cortical neurons in the middle 60 wells of 96 well plates (Greiner)—40,000 cells per well in 150 μl enriched Neurobasal media. Neurons were transfected with mito-DsRed at DIV7 using Lipofectamine2000 (Life Technologies). […] At DIV9, test compounds were added into wells to achieve a final concentration of 10 μM each (4 wells per compound), as well at 10 μM calcimycin for neg. control, and DMSO only for mock treatment. Following a 1-2 hour incubation, plates were imaged on a ArrayScan XTI (Thermo Fisher). Mitochondrial motility data was extrapolated from imaging data using a MATLAB and CellProfiler based computational pipeline. […] The experiment was repeated twice in different weeks. In the second week, TMRE was added to all wells after imaging was completed (20 min, then 2 washes) and imaged to measure mitochondrial membrane potential in order to determine mitochondrial and cell health.

[3] = tested on: PPARG; assay: PPARG reporter gene assay (FABP4-NanoLuc, RT112/84 bladder cancer cell line); type: cell-based; details: absence or presence of Rosiglitazone
Protocol: These NanoLuc gene cloned RT112/84 cells were plated in 384-well plates at ˜10,000 cells/well. Cells were dosed with indicated compounds in the absence or presence of EC50 of PPARG agonist, rosiglitazone, using an HP D300 digital dispenser. The following day nuclei were counted for normalization (IncuCyte S3, Essen Bioscience) and the reporter activity was evaluated using the NanoGlo Luciferase Assay System (Promega). Normalized data is reported as NanoGlo arbitrary light units divided by cell number. PPARG agonist, rosiglitazone, and inhibitor, T0070907, were obtained from Tocris and included as controls.

[4] = tested on: murine periosteal cells; assay: qPCR of Yap1 and Cyr61 in murine periosteal cells; type: cell-based, mouse; details: 5 μM
Protocol: Murine periosteal cells were isolated from a transgenic mouse model (CMV-Cre; R26R-rtTA^fl; tetO-YAP^S127A) in which YAP1 can be activated in a doxycycline inducible manner (Camargo 2011). This mouse model expresses a mutant form of YAP1 (YAP^S127A) that escapes degradation. Cells were cultured in a-MEM with 15% Fetal Bovine serum (S11550, R&D Systems), 1% GlutaMAX-I (Gibco, 35050-061) and 1% Penicillin/Streptomycin (Gibco, 15140-122).
To induce YAP^S127A, […] doxycycline was added to the cell culture medium for 48 hours. This was used as a positive control to compare YAP1 mRNA expression. Cells were also treated with BRD-K34692511-001-01-9 at 5 μM. mRNA was isolated from cells (n=3/group/time point) at 1, 4 or 48 hours after treatment using Qiagen RNeasy Mini kit (Qiagen, 74106). cDNA was prepared as per the manufacturer's protocol using the High-Capacity Reverse Transcription kit (Thermofisher scientific, 4368814). qPCR analysis was performed using the QuantStudio 6 Pro Real-Time PCR System.

[5] = tested on: H9 human pluripotent stem cells; assay: qPCR of YAP1, CTGF and CYR61 in H9 hPSCs; type: cell-based; details: 24 hrs
Protocol: H9 hPSCs (WiCell) were maintained on vitronectin (Thermo Fisher)-coated plates in Essential 8 (E8) medium. The cells were routinely passaged using 0.5 mM EDTA and treated with 5 μM Y-27632 dihydrochloride (Tocris) on the first day. For testing the effects of the small molecules, H9 hPSCs were seeded at 50K cells/cm^2 on vitronectin-coated plates in E8 medium supplemented with 5 μM Y-27632 dihydrochloride (day 0). On day 1, the medium was switched to E8 medium. On day 2, the medium was switched to E8 medium supplemented with the small molecules. Following overnight incubation, the cells were collected for subsequent analysis on day 3.
The RNA was extracted using TRIzol (Life Technologies) and Direct-zol™ RNA MiniPrep kit (Zymo Research) as per manufacturer instructions. The RNA was reverse transcribed using iScript cDNA synthesis kit (Bio-Rad). The qPCR was performed on CFX Connect (Bio-Rad) using iTaq Universal SYBR Green Supermix (Bio-Rad). GAPDH was used as a reference gene for normalization. The relative gene expression levels were determined using the ddCt method.

[6] = tested on: TRAF2 overexpression in U2OS cells; assay: Cell Painting morphological profile matching to TRAF2 overexpression; type: cell-based, human; details: for Corr. to TRAF2: Pearson correlation of Cell Painting signatures, U2OS cells
Description: (§1) Of these, analysis of the 220 constructs that were most closely representative of the annotated full-length transcripts was prioritized. […] Not all genes are likely to impact cellular morphology given the limitation of the experiment; using a single cell line at a single time point under a single set of conditions and stained with six fluorescent labels.
(§2) This standardization was done plate wise, based on the mean and standard deviation of the controls at profile level for the compound dataset. […] The signatures were then obtained by averaging the replicate profiles feature-wise. Pearson correlation was used on the aligned signatures of a gene and compound to score their connection.

[7] = tested on: KP230 cells; assay: Proliferation assay, KP230 cells; type: cell-based, mouse; details: 10 μM daily for 72 hours
Description: YAP1 cell culture and treatments: Eisinger lab: Murine KP230 cells, a Yap1-dependent cancer cell line, were derived from a tumor from the KP mouse model (Kras^G12/D; Trp53^f/fl), as described in Eisinger-Mathason, T. S. K. et al., Proc. Natl. Acad. Sci. U.S.A 112 (2015): E3402-11, which is hereby incorporated by reference in its entirety. STS-109 UPS cells were derived from a human UPS tumor and validated by Rebecca Gladdy, MD (Sinai Health System, Toronto, Ontario, Canada). TC32 cells were a gift from Patrick Grohar, MD, PhD (Children's Hospital of Philadelphia). HT-1080, HCT-116, and HEK293T cells were purchased from ATCC. KP230, HT-1080, and HEK-293T cells were grown in DMEM with 10% FBS, 1% L-glutamine, and 1% penicillin/streptomycin (P/S). STS-109 cells were cultured in DMEM with 20% FBS, 1% L-glutamine, and 1% P/S. TC32 cells were grown in RPMI with 10% FBS, 1% L-glutamine, and 1% P/S. HCT-116 cells were cultured in McCoy's 5A medium with 10% FBS and 1% P/S. All cells were confirmed to be negative for mycoplasma contamination and were maintained in an incubator at 37C with 5% CO2. For experimental purposes, cells were cultured for up to 20 passages before being discarded, and were grown to approximately 50% confluence to circumvent the effects of high cell density on Yap1 expression and activity. All cell lines in the Eisinger laboratory were treated with 10 μM of each inhibitor or an equivalent volume of DMSO every 24 hours for 3 days, except for STS-109 cells, which were treated daily for 8 days.
NB4A treatment: Cells were treated with 10 μM of each inhibitor or an equivalent volume of DMSO every 24 hours for 3-8 days, and counted with a hemocytometer with trypan blue exclusion daily (KP230, HT-1080, TC32, HCT-116), or every 2 days (STS-109).

[8] = tested on: U2OS cells; assay: Cell count in U2OS Cell Painting images; type: cell-based, human; details: for Avg. Cell Count z-score: U2OS Cell Painting
Description: as §1, §2

[9] = tested on: HEK293, HepG2, A549 cells; details: per PubChem; cited from earlier work
[10] = tested on: YAP1 overexpression in U2OS cells; assay: Cell Painting morphological profile matching to YAP1/TAZ overexpression signature; type: cell-based, human; details: for Corr. to YAP1 cluster: Pearson correlation of Cell Painting signatures, U2OS cells
Description: as §1
FIG. 2 provides an example characterization of matching the morphological signature of a gene query to the signature(s) of compounds in a library. Connections which show both positive and negative large correlations are considered as matches.
as §2

[11] = biological target: PAX8 (Homo sapiens, UniProt Q06710); details: per PubChem; cited from earlier work
PAX8, sequence (Q06710 whole entry, species assumed): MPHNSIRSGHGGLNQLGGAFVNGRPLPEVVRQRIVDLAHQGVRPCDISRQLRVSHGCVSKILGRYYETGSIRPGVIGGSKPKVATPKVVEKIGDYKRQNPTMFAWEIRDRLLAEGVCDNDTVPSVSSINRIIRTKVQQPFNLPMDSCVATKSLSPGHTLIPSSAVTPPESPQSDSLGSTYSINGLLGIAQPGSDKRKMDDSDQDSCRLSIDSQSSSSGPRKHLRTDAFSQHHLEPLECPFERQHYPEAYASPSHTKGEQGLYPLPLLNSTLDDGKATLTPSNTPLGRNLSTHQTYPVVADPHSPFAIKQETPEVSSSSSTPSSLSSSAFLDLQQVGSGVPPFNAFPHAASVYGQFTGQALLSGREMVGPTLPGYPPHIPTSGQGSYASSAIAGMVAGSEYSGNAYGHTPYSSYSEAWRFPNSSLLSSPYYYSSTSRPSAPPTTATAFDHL

T1 sequence (Q16539 whole entry): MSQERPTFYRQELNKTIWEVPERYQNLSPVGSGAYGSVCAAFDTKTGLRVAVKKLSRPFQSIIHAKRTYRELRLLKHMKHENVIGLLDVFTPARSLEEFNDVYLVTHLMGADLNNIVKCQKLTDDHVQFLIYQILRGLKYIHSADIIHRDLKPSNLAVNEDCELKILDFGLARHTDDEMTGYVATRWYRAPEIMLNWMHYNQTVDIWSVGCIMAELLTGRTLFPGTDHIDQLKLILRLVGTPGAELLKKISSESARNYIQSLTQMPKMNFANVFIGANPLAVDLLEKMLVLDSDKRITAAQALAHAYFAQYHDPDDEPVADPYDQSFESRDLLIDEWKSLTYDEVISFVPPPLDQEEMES

Structure (SMILES): Nc1nc(Nc2ccccc2)nc2c1ncn2C1OC(CO)C(O)C1O (stereo not shown) [BRD-A64933752, 2-(6-amino-2-anilinopurin-9-yl)-5-(hydroxymethyl)oxolane-3,4-diol]
p38a activity [1]: potential inhibitors

Structure (SMILES): CC(C)(C)n1nc(-c2cccc3ccccc23)c2c(N)ncnc21 [BRD-K29542628, 1-(tert-Butyl)-3-(naphthalen-1-yl)-1H-pyrazolo[3,4-d]pyrimidin-4-amine]
TMRE staining (mitochondrial membrane potential) [2]: normal levels of TMRE staining
PPARG reporter activity [3]: active in the PPARG reporter assay

Structure (SMILES): CO[C@@H]1CN(C)C(=O)c2cc(NC(=O)Nc3ccc(C(F)(F)F)cc3)ccc2OC[C@@H](C)NC[C@@H]1C [BRD-K34692511, 1-[(4R,7S,8S)-8-methoxy-4,7,10-trimethyl-11-oxo-2-oxa-5,10-diazabicyclo[10.4.0]hexadeca-1(12),13,15-trien-14-yl]-3-[4-(trifluoromethyl)phenyl]urea]
mRNA levels of Yap1 and Cyr61 ([4]; 1 and 4 hours): not at 1 and 4 hours
mRNA levels of Yap1 and Cyr61 ([4]; 48 hours): substantially upregulated
mRNA levels of hippo pathway members (YAP1, CTGF, CYR61) [5]: did not dramatically impact
Cell Painting profile correlation with TRAF2 overexpression [6]: 0.29
Corr. to TRAF2 [6]: 0.2869
proliferation [7]: inhibited KP230 cell proliferation
proliferation in the U2OS Cell Painting images [8]: had none of these impacts
Avg. Cell Count z-score [8]: 0.478
AC50, inhibition of cell proliferation [9]: had none of these impacts
Cell Painting profile correlation with YAP1 overexpression [10]: −0.45
Corr. to YAP1 cluster [10]: −0.4398
PAX8 inhibition [11]: had none of these impacts

Structure (SMILES): CCCCNc1cc(C(=O)O)cc(S(N)(=O)=O)c1Oc1ccccc1 [BRD-K38197229, 3-(butylamino)-4-phenoxy-5-sulfamoylbenzoic acid]
p38a activity [1]: potential inhibitors

Structure (SMILES): COC1(C[S@@+]([O-])c2ccccc2)CCN(CCc2c[nH]c3ccc(F)cc23)CC1 [BRD-K52394958, 5-Fluoro-3-[2-[4-methoxy-4-[[(R)-phenylsulfinyl]methyl]piperidin-1-yl]ethyl]-1H-indole]
p38a activity [1]: identified via an alternative statistical test

Structure (SMILES): CCc1cc(-c2n[nH]c(C)c2-c2ccc3c(c2)OCCO3)c(O)cc1O [BRD-K65503129, 4-[4-(2,3-dihydro-1,4-benzodioxin-6-yl)-5-methyl-1H-pyrazol-3-yl]-6-ethylbenzene-1,3-diol]
PPARG reporter activity ([3]; listed as B09): active in the PPARG reporter assay
PPARG reporter activity ([3]; listed as CCT018159): inhibited reporter activity

Structure (SMILES): CCCCCCCCCCCCCC(=O)O[C@@H]1[C@@H](C)[C@@]2(O)[C@@H](C=C(CO)C[C@]3(O)C(=O)C(C)=C[C@@H]23)[C@@H]2C(C)(C)[C@]12OC(C)=O [BRD-K68552125, 12-O-Tetradecanoylphorbol-13-acetate]
TMRE staining (mitochondrial membrane potential) [2]: normal levels of TMRE staining
PPARG reporter activity ([3]; listed as A06): active in the PPARG reporter assay
PPARG reporter activity ([3]; listed as Phorbol 12-myristate 13-acetate): inhibited reporter activity

Structure (SMILES): O=c1[nH]ccc2c(S(=O)(=O)N3CCCNCC3)cccc12 [BRD-K77793136, 5-(1,4-diazepan-1-ylsulfonyl)-2H-isoquinolin-1-one]
Corr. to TRAF2 [6]: −0.4667
Avg. Cell Count z-score [8]: −1.055
Corr. to YAP1 cluster [10]: 0.4458

Structure (SMILES): CCc1nc(N)nc(N)c1-c1ccc(Cl)cc1 [BRD-K88429204, 5-(4-chlorophenyl)-6-ethylpyrimidine-2,4-diamine]
Corr. to TRAF2 [6]: −0.3496
Avg. Cell Count z-score [8]: −0.2165
Corr. to YAP1 cluster [10]: 0.4503

Structure (SMILES): CC(C)(C)n1nc(-c2ccc(Cl)cc2)c2c(N)ncnc21 [BRD-K95785537, 1-(tert-butyl)-3-(4-chlorophenyl)-1H-pyrazolo[3,4-d]pyrimidin-4-amine]
TMRE staining (mitochondrial membrane potential) [2]: normal levels of TMRE staining

Structure (SMILES): C[C@@H]1CN([C@H](C)CO)C(=O)CCCn2cc(nn2)CO[C@@H]1CN(C)S(=O)(=O)c1ccc(Oc2ccccc2)cc1 [BRD-K96698997, N-[[(8R,9S)-6-[(2R)-1-hydroxypropan-2-yl]-8-methyl-5-oxo-10-oxa-1,6,13,14-tetrazabicyclo[10.2.1]pentadeca-12(15),13-dien-9-yl]methyl]-N-methyl-4-phenoxybenzenesulfonamide]
Corr. to TRAF2 [6]: 0.4834
Avg. Cell Count z-score [8]: −1.099
Corr. to YAP1 cluster [10]: −0.4518

Structure (SMILES): Cc1ccc(-c2nn(C(C)(C)C)c3ncnc(N)c23)cc1 [PP1, reference compound]
PPARG reporter activity [3]: reporter activation

p38a activity [1]: suppressed p38a activity
Structure (SMILES): Oc1ccc(-c2nc(-c3ccc(F)cc3)c(-c3ccncc3)[nH]2)cc1 [SB202190, 4-(4-(4-fluorophenyl)-5-(pyridin-4-yl)-1H-imidazol-2-yl)phenol, reference compound]
